Experimental data published in article PMC6798786 (Brain Communications, 2019).
Like-named read-outs stand apart in the source and are kept apart here.

Tests used:
[1] = biological target: DOPAMINE D4; details: read-out: Ki DOPAMINE D4; known drugs of Table 1; reference not given; cited from earlier work
[2] = biological target: Adrenergic alpha2C; details: read-out: Ki Adrenergic alpha2C; known drugs of Table 1; reference not given; cited from earlier work
[3] = biological target: 5-HT5; details: known drugs of Table 1; reference not given; cited from earlier work
[4] = biological target: Adrenergic beta1; details: read-out: Ki Adrenergic beta1; known drugs of Table 1; reference not given; cited from earlier work
[5] = biological target: 5-HT1A; details: known drugs of Table 1; reference not given; cited from earlier work
[6] = biological target: 5-HT7; details: known drugs of Table 1; reference not given; cited from earlier work
[7] = biological target: 5-HT6; details: known drugs of Table 1; reference not given; cited from earlier work
[8] = biological target: Adrenergic alpha1B; details: known drugs of Table 1; reference not given; cited from earlier work
[9] = biological target: DOPAMINE D1; details: read-out: Ki DOPAMINE D1; known drugs of Table 1; reference not given; cited from earlier work
[10] = biological target: 5-HT transporter; details: known drugs of Table 1; reference not given; cited from earlier work
[11] = biological target: Adrenergic alpha2B; details: read-out: Ki Adrenergic alpha2B; known drugs of Table 1; reference not given; cited from earlier work
[12] = biological target: Adrenergic alpha2A; details: read-out: Ki Adrenergic alpha2A; known drugs of Table 1; reference not given; cited from earlier work
[13] = biological target: Adrenergic beta2; details: read-out: Ki Adrenergic beta2; known drugs of Table 1; reference not given; cited from earlier work
[14] = biological target: Histamine H2; details: known drugs of Table 1; reference not given; cited from earlier work
[15] = biological target: DOPAMINE D5; details: read-out: Ki DOPAMINE D5; known drugs of Table 1; reference not given; cited from earlier work
[16] = biological target: Dopamine transporter; details: known drugs of Table 1; reference not given; cited from earlier work
[17] = biological target: Adrenergic alpha1A; details: read-out: Ki Adrenergic alpha1A; known drugs of Table 1; reference not given; cited from earlier work
[18] = biological target: Norepinephrine transporter; details: known drugs of Table 1; reference not given; cited from earlier work
[19] = biological target: DOPAMINE D2; details: known drugs of Table 1; reference not given; cited from earlier work
[20] = test system: scn1lab mutant zebrafish; assay: locomotion (mean swim velocity) seizure-like behaviour assay in scn1lab mutant zebrafish larvae; format: in vivo, Danio rerio; details: for effect on seizure-like swim behaviour, commercially available compounds: three concentrations, 30 and 90 min exposure; for change in vivo at 100 µM / change in vivo at 250 µM: Danio rerio
Method: For locomotion studies, zebrafish larvae (5 days post-fertilization) were placed into a single well of a clear flat-bottomed 96-well microplate containing embryo media. Sex determination is not possible at this stage of development. All drug screening experiments were conducted in an unbiased manner by investigators blinded to the test compounds and all files coded for post hoc analysis. The 96-well plate containing larvae was then placed inside a DanioVision box where they were allowed to acclimate (20 min; room temperature). EthoVision XT software (DanioVision, Noldus Information Technology) was used to obtain locomotion plots (10 min in duration). Seizure scoring was performed, as described ([Baraban et al., 2005]). All locomotion plots were analysed for distance travelled (in millimetres) and mean velocity (in millimetres per second). After 90 min of drug exposure larvae were examined for toxic side-effects. Compounds that decreased or stopped the larva heartbeat, or reduced or eliminated the escape response when touched, were considered toxic.
For behaviour analysis, the threshold for a change in mean swim velocity ≥40% is considered significant (>1.5× SD of 250 control treated scn1lab). Unless otherwise indicated, all data in this manuscript are presented as the mean ± standard error of the mean. […] Statistically significant differences are indicated with asterisks (*P < 0.05; **P < 0.01; ***P < 0.001). […]

[21] = biological target: T1, human 5-HT2AR (Homo sapiens, UniProt P28223); details: known drugs of Table 1; reference not given; read-out: Ki 5-HT2A, Table 1 known drugs; cited from earlier work
[22] = test system: scn1lab mutant zebrafish; assay: local field potential (LFP) electrophysiology, electrographic seizure events; format: in vivo, Danio rerio; details: 250 µM; 10 min recording epoch
Method: Using a glass micro-electrode positioned under an upright microscope, local field potential (LFP) recordings were obtained from forebrain or optic tectum structures, as described ([Baraban et al., 2005]). Agarose-embedded LFP recording sessions (10 min in duration) were obtained using Axoclamp software (Molecular Devices; Sunnyvale, CA, USA) and sampled at 1 kHz. Epileptiform events were identified post hoc. These were classified as multi-spike or poly-spike upward or downward membrane deflections greater than 3× baseline noise level and 150–250 ms in duration (interictal-like) or greater than 5× baseline noise, multi-spike and >500 ms in duration (ictal-like); both events were counted using threshold detection settings in Clampfit (Molecular Devices; Sunnyvale, CA, USA). Agarose-embedded larvae were continuously monitored for blood flow and heart rate using an Axiocam digital camera at video frame rate.
Monitoring electrographic brain activity to confirm seizure suppression is an essential assay to eliminate false positives from behavioural testing ([Griffin et al., 2018]). By placing a micro-electrode into a visually identified brain region of an agar-immobilized zebrafish larval, stable LFP recordings can be monitored for several hours ([Baraban, 2013]). At 5 days post-fertilization, LFP recordings of scn1Lab zebrafish larvae show an average of 250 abnormal electrographic seizure events during a 10 min recording epoch.

[23] = biological target: 5-HT1D; details: known drugs of Table 1; reference not given; cited from earlier work
[24] = test system: scn1lab mutant zebrafish; parameters: method as in Dinday and Baraban, 2015; Sourbron et al., 2016; details: ref Dinday and Baraban, 2015; Sourbron et al., 2016; cited from earlier work
[25] = use as anorectic; ref Abenhaim et al., 1996; Khan et al., 1998; cited from earlier work
[26] = biological target: 5-HT1B; details: known drugs of Table 1; reference not given; cited from earlier work
[27] = dissolution of compound at screening concentration; details: 250 µM
From the text: Ten millimolars of compound stock solutions were made in dimethyl sulfoxide and then diluted in embryo medium for assays.

[28] = biological target: T2, human H1 (Homo sapiens, UniProt P35367); assay: radioligand binding (NIMH PDSP); details: read-out: Ki H1
Method: (§1) All in vitro binding assay and Ki data studies were performed by the US National Institute of Mental Health Psychoactive Drug Screening Program (NIMH PDSP). For these studies, drugs were screened against recombinant, stably expressed human 5-HT2AR, 5-HT2BR, 5-HT2CR and H1, as described at https://pdspdb.unc.edu/pdspWeb/ ([Besnard et al., 2012]).

[29] = biological target: T3, human 5-HT2CR (Homo sapiens, UniProt P28335); assay: radioligand binding (NIMH PDSP)
T3 sequence (P28335 33-458): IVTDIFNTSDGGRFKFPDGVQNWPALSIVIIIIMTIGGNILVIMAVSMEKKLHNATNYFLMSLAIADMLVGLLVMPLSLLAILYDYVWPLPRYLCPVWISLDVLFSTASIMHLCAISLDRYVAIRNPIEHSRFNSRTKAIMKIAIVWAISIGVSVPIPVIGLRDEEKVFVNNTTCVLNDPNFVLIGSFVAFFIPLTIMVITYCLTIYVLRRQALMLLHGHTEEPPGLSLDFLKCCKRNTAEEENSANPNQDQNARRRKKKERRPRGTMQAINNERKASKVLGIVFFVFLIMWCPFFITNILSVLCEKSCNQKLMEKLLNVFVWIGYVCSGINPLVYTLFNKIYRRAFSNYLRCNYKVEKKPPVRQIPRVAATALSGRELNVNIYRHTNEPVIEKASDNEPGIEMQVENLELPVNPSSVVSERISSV
Method: as §1

[30] = biological target: T4, human 5-HT2BR (Homo sapiens, UniProt P41595); assay: radioligand binding (NIMH PDSP); details: read-out: Ki 5-HT2BR
Method: as §1

[31] = biological target: T1, human 5-HT2AR; assay: radioligand binding (NIMH PDSP)
Method: as §1

[32] = biological target: 5-HT1F; details: known drugs of Table 1; reference not given; cited from earlier work
[33] = biological target: 5-HT1E; details: known drugs of Table 1; reference not given; cited from earlier work
[34] = biological target: T3, human 5-HT2CR
[35] = biological target: T4, human 5-HT2BR
[36] = biological target: Histamine H3; details: known drugs of Table 1; reference not given; cited from earlier work
[37] = biological target: T2, human H1; details: known drugs of Table 1; reference not given; read-out: Ki Histamine H1, Table 1 known drugs; cited from earlier work
[38] = test system: human 5-HT2R; assay: radioligand binding (NIMH PDSP), any 5-HT2R subtype; details: 5-HT2AR, 5-HT2BR, 5-HT2CR
Method: as §1
Additionally, 5-HT2R modulating compounds exert antiepileptic activity in both preclinical ([Sourbron et al., 2016]; [Griffin et al., 2017]) and clinical studies ([Griffin et al., 2017]; [Schoonjans et al., 2017]; [Kauppila et al., 2018]). […] […].

[39] = read-out: % change in velocity, individual larva 1 (heat map)
[40] = read-out: % change in velocity, individual larva 2 (heat map)
[41] = read-out: % change in velocity, individual larva 3 (heat map)
[42] = read-out: % change in velocity, individual larva 4 (heat map)
[43] = read-out: % change in velocity, individual larva 5 (heat map)
[44] = read-out: % change in velocity, individual larva 6 (heat map)
[45] = read-out: mean velocity change from six fish, Trial 1
[46] = recombinant, stably expressed human receptor, clemizole analogues

T4 sequence (P41595 whole entry): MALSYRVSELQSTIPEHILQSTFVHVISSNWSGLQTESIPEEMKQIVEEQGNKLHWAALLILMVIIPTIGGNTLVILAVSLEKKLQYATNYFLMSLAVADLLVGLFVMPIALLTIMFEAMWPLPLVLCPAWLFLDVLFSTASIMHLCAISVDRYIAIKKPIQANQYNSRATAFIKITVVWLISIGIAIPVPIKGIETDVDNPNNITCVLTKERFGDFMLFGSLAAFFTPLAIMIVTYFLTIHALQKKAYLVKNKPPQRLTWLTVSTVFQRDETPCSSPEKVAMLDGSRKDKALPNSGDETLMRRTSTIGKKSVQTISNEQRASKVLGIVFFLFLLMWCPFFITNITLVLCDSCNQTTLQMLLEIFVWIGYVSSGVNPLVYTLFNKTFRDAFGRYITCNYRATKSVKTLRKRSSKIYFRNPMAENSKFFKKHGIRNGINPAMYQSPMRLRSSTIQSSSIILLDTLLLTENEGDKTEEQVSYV
T2 sequence (P35367 whole entry): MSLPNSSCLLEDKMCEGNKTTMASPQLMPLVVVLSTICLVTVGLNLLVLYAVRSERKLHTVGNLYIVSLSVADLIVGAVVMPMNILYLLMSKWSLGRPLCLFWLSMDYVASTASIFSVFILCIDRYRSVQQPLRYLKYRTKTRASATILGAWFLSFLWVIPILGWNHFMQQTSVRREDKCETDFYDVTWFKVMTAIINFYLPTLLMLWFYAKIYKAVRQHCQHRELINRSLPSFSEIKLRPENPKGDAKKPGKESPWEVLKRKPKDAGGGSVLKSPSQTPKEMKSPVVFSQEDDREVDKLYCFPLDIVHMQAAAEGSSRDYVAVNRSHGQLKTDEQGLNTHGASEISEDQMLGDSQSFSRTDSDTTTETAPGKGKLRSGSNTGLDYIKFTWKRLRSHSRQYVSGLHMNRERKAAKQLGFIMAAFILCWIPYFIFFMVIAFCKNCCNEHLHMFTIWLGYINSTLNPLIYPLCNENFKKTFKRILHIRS
T1 sequence (P28223 whole entry): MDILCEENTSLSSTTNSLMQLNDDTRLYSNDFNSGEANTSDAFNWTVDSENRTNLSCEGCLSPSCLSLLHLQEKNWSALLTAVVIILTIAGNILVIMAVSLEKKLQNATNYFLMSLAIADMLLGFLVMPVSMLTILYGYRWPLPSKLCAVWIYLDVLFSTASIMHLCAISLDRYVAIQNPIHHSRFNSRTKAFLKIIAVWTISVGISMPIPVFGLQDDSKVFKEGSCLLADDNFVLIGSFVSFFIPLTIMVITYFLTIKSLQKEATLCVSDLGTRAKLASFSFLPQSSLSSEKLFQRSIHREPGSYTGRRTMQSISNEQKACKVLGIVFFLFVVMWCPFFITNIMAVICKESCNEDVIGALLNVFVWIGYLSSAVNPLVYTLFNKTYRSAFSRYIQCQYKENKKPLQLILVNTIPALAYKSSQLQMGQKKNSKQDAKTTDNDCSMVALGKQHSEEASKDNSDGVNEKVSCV

C[C@H]1CNCCc2ccc(Cl)cc21 [lorcaserin]
Ki [1]: > 10 µM
Ki [2]: > 10 µM
Ki [3]: 3.71 µM
Ki [4]: > 10 µM
Ki [5]: 0.7 µM
Ki [6]: 0.636 µM
Ki [7]: 1.98 µM
Ki [8]: > 10 µM
Ki [9]: > 10 µM
Ki [10]: 0.99 µM
Ki [11]: > 10 µM
Ki [12]: > 10 µM
Ki [13]: > 10 µM
Ki [14]: > 10 µM
Ki [15]: > 10 µM
Ki [16]: > 10 µM
Ki [17]: > 10 µM
Ki [18]: 1.4 µM
Ki [19]: > 10 µM

CC(N)Cc1ccc2ccoc2c1 (stereo not shown) [Compound 6-APB, 6-(2-aminopropyl)benzofuran]
effect on seizure-like swim behaviour, commercially available compounds [20]: suppressed convulsive swim behaviours in a concentration-dependent manner
Ki [21]: 1.93 µM
Ki [5]: 1.28 µM
Ki [6]: 0.155 µM
Ki [10]: 2.7 µM
effect on frequency of electrographic seizure events (LFP) [22]: significantly suppressed the frequency of electrographic seizure events

CCNC(C)Cc1cccc(C(F)(F)F)c1 (stereo not shown) [fenfluramine]
Ki [23]: 1.26 µM
suppression of spontaneous seizures in scn1lab zebrafish (earlier work) [24]: effective in suppressing spontaneous seizures
Ki [6]: 7.31 µM
Ki [7]: 9.08 µM
patients with heart valve defects [25]: ~25%
Ki [8]: 0.142 µM
Ki [26]: 1.84 µM

CC(C)(C)OC(=O)N1CCN(Cc2nc3ccccc3n2Cc2ccc(Cl)cc2)CC1 [Compound 25]
going into solution at screening concentration [27]: failed to go into solution
Ki [28]: 0.076 µM
Ki [29]: 2.26 µM
Ki [30]: 0.482 µM
Ki [31]: 2.38 µM
change in vivo at 100 µM [20, 39]: -56%
change in vivo at 250 µM [20, 39]: -87%
change in vivo at 100 µM [20, 40]: 91.3%
change in vivo at 250 µM [20, 40]: -92.4%
change in vivo at 100 µM [20, 41]: -65.8%
change in vivo at 250 µM [20, 41]: -76.5%
change in vivo at 100 µM [20, 42]: 78.7%
change in vivo at 250 µM [20, 42]: -56.9%
change in vivo at 100 µM [20, 43]: 35.7%
change in vivo at 250 µM [20, 43]: -100%
change in vivo at 100 µM [20, 44]: 153%
change in vivo at 250 µM [20, 44]: -23.6%
change in vivo at 100 µM [20, 45]: 42%
change in vivo at 250 µM [20, 45]: -82.5%
change in vivo at 100 µM ([20]; read-out: mean velocity change from six fish, Trial 2): 42%

CC[C@@H](CO)NC(=O)[C@@H]1C=C2c3cccc4[nH]cc(c34)C[C@H]2N(C)C1 [methylergonovine]
Ki [32]: 0.031 µM
effect on seizure-like swim behaviour, commercially available compounds [20]: suppressed convulsive swim behaviours in a concentration-dependent manner
Ki [33]: 0.0891 µM
Ki ([34]; read-out: Ki 5-HT2C, Table 1 known drugs; known drugs of Table 1; reference not given; cited from earlier work): 0.0046 µM
Ki ([35]; read-out: Ki 5-HT2B, Table 1 known drugs; known drugs of Table 1; reference not given; cited from earlier work): 0.0022 µM
effect on frequency of electrographic seizure events (LFP) [22]: significantly suppressed the frequency of electrographic seizure events

Clc1ccc(Cn2c(CN3CCCC3)nc3ccccc32)cc1 [clemizole]
Ki [23]: > 10 µM
Ki [21]: 0.239 µM
Ki [5]: > 10 µM
Ki [6]: > 10 µM
Ki [7]: > 10 µM
Ki ([34]; known drugs of Table 1; reference not given; read-out: Ki 5-HT2C, Table 1 known drugs; cited from earlier work): 0.197 µM
Ki [36]: 0.402 µM
Ki [26]: > 10 µM
Ki ([35]; known drugs of Table 1; reference not given; read-out: Ki 5-HT2B, Table 1 known drugs; cited from earlier work): 0.025 µM
Ki [37]: 0.0013 µM
Ki [18]: > 10 µM

c1ccc2c(c1)nc(CN1CCCC1)n2CC1CCOCC1 [Compound 15]
Ki [28, 46]: 0.865 µM
Ki [29, 46]: > 10 µM
Ki [30, 46]: > 10 µM
Ki [31, 46]: > 10 µM
binding to any human 5-HT2R [38]: no significant binding

FC1(F)CCC(Cn2c(CN3CCCC3)nc3ccccc32)CC1 [Compound 17]
Ki [28, 46]: 0.137 µM
Ki [29, 46]: > 10 µM
Ki [30, 46]: > 10 µM
Ki [31, 46]: > 10 µM
binding to any human 5-HT2R [38]: no significant binding
